Each structure is given as a SMILES string.

One assay addresses T1, CDK1/Cyclin B (Homo sapiens, UniProt P06493).
T1 construct: purchased Invitrogen PR4768C
In words: Enzymatic assay for CDK1 (LANCE Ultra kinase assay, FRET based). Format: biochemical. Conditions: ATP at Km; read-out: CDK1 enzymatic activity IC50. Summed up: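 Purified CDK–cyclin enzyme, ATP at Km; ULight peptide substrate; TR-FRET via Eu anti-phospho-Ab; inhibition scored.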
(In TR-FRET formats the signal depends on donor and acceptor labels being close together.)

The subject of another assay is A2780. In words: A2780 viability assay (CellTiter-Glo, 72 hours). It counts as cell-based. The following applies: Homo sapiens; A2780 cells. Summed up: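 RPMI-1640/10% FBS; plate cells (MV4-11 1×10^4, OVCAR-3 5×10^3, A2780 1×10^3 per well); 24 h later add compound 0.0015–10 uM; 72 h, 37° C; CellTiter-Glo luminescence, duplicate wells.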
For orientation: ATP-based viability assays read luminescence as a measure of living cells.

Assay [1] concerns the target 28 CDKs family protein kinases (Homo sapiens, UniProt Q00535). The assay can be described thus: In vitro IC50 profile for CDKs family kinase (33PanQinase Activity Assay, ProQinase). It counts as biochemical. More on the design: purchased ProQinase GmbH; host or cells: Sf9 insect cells or E. coli. The following applies: CDK5/p35NCK; read-out: CDK7 selectivity profile in CDKs family, IC50. As for the experimental part: The IC50 profile of compound 11 was determined using 28 CDKs family protein kinases through ProQinase GmbH (Freiburg, Germany). All the protocol and materials had been provided by ProQinase GmbH. Briefly, in the process, 90 μl H2O were added to each well of a compound dilution plate. To minimize potential precipitation, the H2O was added to the plate only a few minutes before the transfer of the compound solutions into the assay plates. The plate was shaken thoroughly, resulting in a “compound dilution plate/10% DMSO”. The compound dilution plate(s) were discarded at the end of the working day. For the assays (see below), 5 μl solution from each well of the compound dilution plate were transferred into the assay plates. The final volume of the assay was 50 μl. […] Kinases from external vendors, Carna Biosciences Inc.; Invitrogen Corp.; and Millipore Corp., were expressed, purified and quality-controlled by virtue of the vendors readings. […] Incorporation of ^33Pi was determined with a microplate scintillation counter (Microbeta, Wallac). […] The residual activity (in %) for each well of a particular plate was calculated by using the following formula: Res. Activity (%)=100×[(cpm of compound−low control)/(high control−low control)].

Sequence of 28 CDKs family protein kinases (Q00535 whole entry): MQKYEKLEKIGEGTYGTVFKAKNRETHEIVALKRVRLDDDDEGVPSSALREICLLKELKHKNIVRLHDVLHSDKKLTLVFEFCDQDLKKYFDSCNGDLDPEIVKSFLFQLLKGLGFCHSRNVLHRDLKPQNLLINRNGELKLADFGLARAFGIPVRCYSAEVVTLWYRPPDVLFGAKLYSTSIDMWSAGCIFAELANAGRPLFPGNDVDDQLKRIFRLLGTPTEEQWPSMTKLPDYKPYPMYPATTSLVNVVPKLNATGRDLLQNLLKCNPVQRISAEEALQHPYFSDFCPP
Sequence of 28 CDKs family protein kinases (Q15078 whole entry partner): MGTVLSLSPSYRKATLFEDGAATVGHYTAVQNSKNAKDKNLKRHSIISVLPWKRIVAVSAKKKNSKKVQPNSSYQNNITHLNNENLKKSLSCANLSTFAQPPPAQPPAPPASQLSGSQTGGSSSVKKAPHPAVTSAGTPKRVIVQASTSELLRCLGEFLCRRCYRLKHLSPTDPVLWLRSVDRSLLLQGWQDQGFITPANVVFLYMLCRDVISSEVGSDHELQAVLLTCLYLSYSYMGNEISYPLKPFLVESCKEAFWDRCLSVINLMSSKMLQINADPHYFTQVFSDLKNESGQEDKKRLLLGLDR
T1 sequence (P06493 whole entry): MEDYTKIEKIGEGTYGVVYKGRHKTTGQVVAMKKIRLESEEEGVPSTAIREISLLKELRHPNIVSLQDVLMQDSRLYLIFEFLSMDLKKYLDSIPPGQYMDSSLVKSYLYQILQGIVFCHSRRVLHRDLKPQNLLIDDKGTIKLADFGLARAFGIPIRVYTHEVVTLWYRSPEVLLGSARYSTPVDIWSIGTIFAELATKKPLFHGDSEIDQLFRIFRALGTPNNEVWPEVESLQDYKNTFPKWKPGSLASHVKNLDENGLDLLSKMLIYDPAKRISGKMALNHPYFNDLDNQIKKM
T1 sequence (P14635 whole entry partner): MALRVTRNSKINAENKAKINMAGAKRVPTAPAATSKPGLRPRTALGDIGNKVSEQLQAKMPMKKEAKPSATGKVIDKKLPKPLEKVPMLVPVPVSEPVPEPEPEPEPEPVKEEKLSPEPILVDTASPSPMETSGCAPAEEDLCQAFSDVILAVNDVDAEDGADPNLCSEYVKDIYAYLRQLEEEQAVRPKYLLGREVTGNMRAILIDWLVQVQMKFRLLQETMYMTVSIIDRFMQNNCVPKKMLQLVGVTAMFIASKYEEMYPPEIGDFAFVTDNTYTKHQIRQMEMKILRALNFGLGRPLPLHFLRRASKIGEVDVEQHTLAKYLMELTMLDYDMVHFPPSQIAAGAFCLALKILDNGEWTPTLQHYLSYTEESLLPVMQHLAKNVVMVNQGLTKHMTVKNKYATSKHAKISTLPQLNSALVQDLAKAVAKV

As a reminder, the IC50 is the concentration that inhibits the measured activity by half. For `CC(C)c1cnn2c(NCc3ccccc3-c3nccc4cc(NC(=O)/C=C/CN(C)C)ccc34)nc(N3CCC(N)CC3)nc12` [Compound 11], the IC50 is above 1 µM at CDK1/Cyclin B, below 1 µM in the assay on A2780 and 7.86 µM in assay [1].

Values taken from patent US12606561B2, “Substituted pyrazolo[1,5-a][1,3,5]triazines as CDK inhibitors” (QURIENT CO., LTD., priority 2018, dated 2026).
